Source: ChEMBL document CHEMBL1201862, “PubChem BioAssay data set” (2004)
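Compound exposure: 48 hours, 5 concentrations, 96-well plates. The concentration for 50% growth inhibition is given as GI50.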 Activity calls are given as the source filed them. No stated cut-off is given here; in the data, active = GI50 up to about 1.1 µM and inactive = higher.

What was measured:
Assay in all cases: growth of human tumour cells (NCI), 48 h
[1] = tested on: HCT-116
[2] = tested on: COLO 205
[3] = tested on: HT-29
[4] = tested on: SNB-75
[5] = tested on: LOX IMVI
[6] = tested on: SK-MEL-5
[7] = tested on: HL-60
[8] = tested on: ACHN
[9] = tested on: DMS-114
[10] = tested on: HOP-92
[11] = tested on: 786-0
[12] = tested on: NCI-H23
[13] = tested on: NCI-H460
[14] = tested on: SK-MEL-28
[15] = tested on: K562
[16] = tested on: SN12C
[17] = tested on: DMS-273
[18] = tested on: SNB-78
[19] = tested on: EKVX
[20] = tested on: HOP-18
[21] = tested on: SR
[22] = tested on: HOP-62
[23] = tested on: NCI-H226
[24] = tested on: M19-MEL
[25] = tested on: NCI-H522
[26] = tested on: UO-31
[27] = tested on: A549
[28] = tested on: RXF 393
[29] = tested on: OVCAR-4
[30] = tested on: DLD-1
[31] = tested on: CCRF-CEM
[32] = tested on: OVCAR-3
[33] = tested on: SK-OV-3
[34] = tested on: HCC 2998
[35] = tested on: RPMI-8226
[36] = tested on: SF-295
[37] = tested on: SNB-19
[38] = tested on: MOLT-4
[39] = tested on: CAKI-1
[40] = tested on: OVCAR-5
[41] = tested on: LXFL 529
[42] = tested on: XF498
[43] = tested on: M14
[44] = tested on: SW-620
[45] = tested on: KM-20L2
[46] = tested on: SF-539
[47] = tested on: TK-10
[48] = tested on: OVCAR-8
[49] = tested on: U-251
[50] = tested on: SF-268
[51] = tested on: IGROV-1
[52] = tested on: KM12
[53] = tested on: SK-MEL-2
[54] = tested on: UACC-62
[55] = tested on: RXF 631
[56] = tested on: UACC-257
[57] = tested on: A498
[58] = tested on: Malme-3M
[59] = tested on: HCT-15

**Q.** Which GI50 [1] does the source give for `S=C1OC2CCCC[C@H]2O1` (stereo partly drawn) here?
**A.** > 100 µM (inactive)

**Q.** What about the GI50 [2] of the same molecule?
**A.** > 100 µM (inactive)

**Q.** And the GI50 [3]?
**A.** > 100 µM (inactive)

**Q.** What about the GI50 [4] of the same molecule?
**A.** > 100 µM (inactive)

**Q.** What about the GI50 [5] of the same molecule?
**A.** > 100 µM (inactive)

**Q.** What about the GI50 [6] of the same molecule?
**A.** > 100 µM (inactive)

**Q.** What about the GI50 [7] of the same molecule?
**A.** > 100 µM (inactive)

**Q.** What about the GI50 [8] of the same molecule?
**A.** > 100 µM (inactive)

**Q.** What about the GI50 [9] of the same molecule?
**A.** > 100 µM (inactive)

**Q.** And the GI50 [10]?
**A.** > 100 µM (inactive)

**Q.** And the GI50 [11]?
**A.** > 100 µM (inactive)

**Q.** What about the GI50 [12] of the same molecule?
**A.** > 100 µM (inactive)

**Q.** What about the GI50 [13] of the same molecule?
**A.** > 100 µM (inactive)

**Q.** What about the GI50 [14] of the same molecule?
**A.** > 100 µM (inactive)

**Q.** And the GI50 [15]?
**A.** > 100 µM (inactive)

**Q.** And the GI50 [16]?
**A.** > 100 µM (inactive)

**Q.** What about the GI50 [17] of the same molecule?
**A.** > 100 µM (inactive)

**Q.** What about the GI50 [18] of the same molecule?
**A.** > 100 µM (inactive)

**Q.** And the GI50 [19]?
**A.** > 100 µM (inactive)

**Q.** And the GI50 [20]?
**A.** > 100 µM (inactive)

**Q.** What about the GI50 [21] of the same molecule?
**A.** > 100 µM (inactive)

**Q.** And the GI50 [22]?
**A.** > 100 µM (inactive)

**Q.** And the GI50 [23]?
**A.** > 100 µM (inactive)

**Q.** What about the GI50 [24] of the same molecule?
**A.** > 100 µM (inactive)

**Q.** What about the GI50 [25] of the same molecule?
**A.** > 100 µM (inactive)

**Q.** And the GI50 [26]?
**A.** > 100 µM (inactive)

**Q.** And the GI50 [27]?
**A.** > 100 µM (inactive)

**Q.** What about the GI50 [28] of the same molecule?
**A.** > 100 µM (inactive)

**Q.** What about the GI50 [29] of the same molecule?
**A.** > 100 µM (inactive)

**Q.** And the GI50 [30]?
**A.** > 100 µM (inactive)

**Q.** What about the GI50 [31] of the same molecule?
**A.** > 100 µM (inactive)

**Q.** What about the GI50 [32] of the same molecule?
**A.** > 100 µM (inactive)

**Q.** And the GI50 [33]?
**A.** > 100 µM (inactive)

**Q.** And the GI50 [34]?
**A.** > 100 µM (inactive)

**Q.** What about the GI50 [35] of the same molecule?
**A.** > 100 µM (inactive)

**Q.** And the GI50 [36]?
**A.** > 100 µM (inactive)

**Q.** And the GI50 [37]?
**A.** > 100 µM (inactive)

**Q.** What about the GI50 [38] of the same molecule?
**A.** > 100 µM (inactive)

**Q.** What about the GI50 [39] of the same molecule?
**A.** > 100 µM (inactive)

**Q.** What about the GI50 [40] of the same molecule?
**A.** > 100 µM (inactive)

**Q.** What about the GI50 [41] of the same molecule?
**A.** > 100 µM (inactive)

**Q.** And the GI50 [42]?
**A.** > 100 µM (inactive)

**Q.** What about the GI50 [43] of the same molecule?
**A.** > 100 µM (inactive)

**Q.** What about the GI50 [44] of the same molecule?
**A.** > 100 µM (inactive)

**Q.** What about the GI50 [45] of the same molecule?
**A.** > 100 µM (inactive)

**Q.** And the GI50 [46]?
**A.** > 100 µM (inactive)

**Q.** What about the GI50 [47] of the same molecule?
**A.** > 100 µM (inactive)

**Q.** And the GI50 [48]?
**A.** > 100 µM (inactive)

**Q.** What about the GI50 [49] of the same molecule?
**A.** > 100 µM (inactive)

**Q.** What about the GI50 [50] of the same molecule?
**A.** > 100 µM (inactive)

**Q.** And the GI50 [51]?
**A.** > 100 µM (inactive)

**Q.** And the GI50 [52]?
**A.** > 100 µM (inactive)

**Q.** What about the GI50 [53] of the same molecule?
**A.** > 100 µM (inactive)

**Q.** And the GI50 [54]?
**A.** > 100 µM (inactive)

**Q.** What about the GI50 [55] of the same molecule?
**A.** > 100 µM (inactive)

**Q.** And the GI50 [56]?
**A.** > 100 µM (inactive)

**Q.** For `CCOC(=O)NC1C2CC(=O)C(O2)C1OCc1ccccc1` (stereo not drawn), which GI50 [2] is on record?
**A.** > 100 µM (inactive)

**Q.** What about the GI50 [3] of the same molecule?
**A.** > 100 µM (inactive)

**Q.** And the GI50 [4]?
**A.** > 100 µM (inactive)

**Q.** What about the GI50 [5] of the same molecule?
**A.** > 100 µM (inactive)

**Q.** And the GI50 [6]?
**A.** > 100 µM (inactive)

**Q.** What about the GI50 [7] of the same molecule?
**A.** > 100 µM (inactive)

**Q.** What about the GI50 [8] of the same molecule?
**A.** > 100 µM (inactive)

**Q.** What about the GI50 [57] of the same molecule?
**A.** > 100 µM (inactive)

**Q.** And the GI50 [9]?
**A.** > 100 µM (inactive)

**Q.** And the GI50 [10]?
**A.** > 100 µM (inactive)

**Q.** And the GI50 [11]?
**A.** > 100 µM (inactive)

**Q.** What about the GI50 [12] of the same molecule?
**A.** > 100 µM (inactive)

**Q.** And the GI50 [13]?
**A.** > 100 µM (inactive)

**Q.** And the GI50 [14]?
**A.** > 100 µM (inactive)

**Q.** What about the GI50 [15] of the same molecule?
**A.** > 100 µM (inactive)

**Q.** What about the GI50 [16] of the same molecule?
**A.** > 100 µM (inactive)

**Q.** What about the GI50 [58] of the same molecule?
**A.** > 100 µM (inactive)

**Q.** And the GI50 [17]?
**A.** > 100 µM (inactive)

**Q.** What about the GI50 [18] of the same molecule?
**A.** > 100 µM (inactive)

**Q.** What about the GI50 [20] of the same molecule?
**A.** > 100 µM (inactive)

**Q.** What about the GI50 [22] of the same molecule?
**A.** > 100 µM (inactive)

**Q.** What about the GI50 [23] of the same molecule?
**A.** > 100 µM (inactive)

**Q.** What about the GI50 [24] of the same molecule?
**A.** > 100 µM (inactive)

**Q.** What about the GI50 [26] of the same molecule?
**A.** 78 µM (inactive)

**Q.** What about the GI50 [27] of the same molecule?
**A.** > 100 µM (inactive)

**Q.** What about the GI50 [28] of the same molecule?
**A.** > 100 µM (inactive)

**Q.** What about the GI50 [29] of the same molecule?
**A.** > 100 µM (inactive)

**Q.** And the GI50 [30]?
**A.** > 100 µM (inactive)

**Q.** And the GI50 [31]?
**A.** > 100 µM (inactive)

**Q.** What about the GI50 [32] of the same molecule?
**A.** > 100 µM (inactive)

**Q.** And the GI50 [33]?
**A.** > 100 µM (inactive)

**Q.** And the GI50 [34]?
**A.** > 100 µM (inactive)

**Q.** What about the GI50 [35] of the same molecule?
**A.** > 100 µM (inactive)

**Q.** And the GI50 [36]?
**A.** > 100 µM (inactive)

**Q.** And the GI50 [38]?
**A.** > 100 µM (inactive)

**Q.** And the GI50 [39]?
**A.** > 100 µM (inactive)

**Q.** And the GI50 [40]?
**A.** > 100 µM (inactive)

**Q.** And the GI50 [41]?
**A.** > 100 µM (inactive)

**Q.** What about the GI50 [42] of the same molecule?
**A.** > 100 µM (inactive)

**Q.** And the GI50 [43]?
**A.** > 100 µM (inactive)

**Q.** And the GI50 [44]?
**A.** > 100 µM (inactive)

**Q.** What about the GI50 [45] of the same molecule?
**A.** > 100 µM (inactive)

**Q.** What about the GI50 [46] of the same molecule?
**A.** > 100 µM (inactive)

**Q.** What about the GI50 [49] of the same molecule?
**A.** > 100 µM (inactive)

**Q.** What about the GI50 [50] of the same molecule?
**A.** > 100 µM (inactive)

**Q.** What about the GI50 [51] of the same molecule?
**A.** > 100 µM (inactive)

**Q.** And the GI50 [52]?
**A.** > 100 µM (inactive)

**Q.** And the GI50 [53]?
**A.** > 100 µM (inactive)

**Q.** And the GI50 [54]?
**A.** > 100 µM (inactive)

**Q.** And the GI50 [59]?
**A.** > 100 µM

**Q.** What about the GI50 [55] of the same molecule?
**A.** > 100 µM (inactive)

**Q.** What about the GI50 [56] of the same molecule?
**A.** > 100 µM (inactive)
